The text below walks through data of patent US20230140983A1, “PYRIDAZINE DERIVATIVES FOR MODULATING NUCLEIC ACID SPLICING” (REMIX THERAPEUTICS INC., priority 2020, published 2023).

The test system of this experiment is HTT. Briefly: Splicing assay (RT-qPCR on cell lysates) monitoring HTT splice variants: AJ and CJ mRNA. The class given is cell-based. The conditions noted are these: Table 7, concentration having 50% response. The procedure: Example 69: Exemplary Splicing Assay for Monitoring Expression Levels of Splice Variants
To set up 10 uL RT-qPCR reactions, cell lysates were transferred to 384-well qPCR plates containing the master mix according to the table below. The plates were sealed, gently vortexed, and spun down before the run. The volumes were adjusted accordingly in some instances where the reaction was carried in 20 uL. The table below summarizes the components of the RT-qPCR reactions:
The RT-qPCR reaction was performed using a QuantStudio (ThermoFisher) under the following fast cycling conditions. All samples and standards were analyzed at least in duplicate. In some instances, bulk room temperature (RT) step of 5-10 minutes was completed for all plates before proceeding with qPCR. The table below summarizes the PCR cycle:
The data analysis was performed by first determining the ΔCt vs the housekeeper gene. This ΔCt was then normalized against the DMSO control (ΔΔCt) and converted to RQ (relative quantification) using the 2^(−ΔΔCt) equation. The RQ were then converted to a percentage response by arbitrarily setting an assay window of 3.5 ΔCt for HTT-CJ and an assay window of 9 ΔCt for HTT-AJ. […] The percentage response was then fitted to the 4 parametric logistic equation to evaluate the concentration dependence of compound treatment. The increase in AJ mRNA is reported as AC50 (compound concentration having 50% response in AJ increase) while the decrease in CJ mRNA levels is reported as IC50 (compound concentration having 50% response in CJ decrease).

The mark [1] stands for this setting: decrease in CJ mRNA, read-out: HTT CJ AC50.
Setting [2] is: increase in AJ mRNA, read-out: HTT AJ AC50.

Where two headings read alike, the source gives them in different places.

Consider `CC1C[C@@H](N(C)c2ccc(-c3ccc(-n4cccn4)c4cc[nH]c34)nn2)CCN1` (stereo in doubt) [Compound 111, N-methyl-N-[(2R,4S)-2-methylpiperidin-4-yl]-6-[4-(pyrazol-1-yl)-1H-indol-7-yl]pyridazin-3-amine], for which the AC50 under setting [1] was above 5 µM and the half-maximal activity concentration (AC50) under setting [2] is above 5 µM.
Consider `CN(c1ccc(-c2ccc(-c3cn[nH]c3)c3cn[nH]c23)nn1)[C@@H]1C[C@H]2CC[C@@H](C1)N2` [Compound 104, (1R,3S,5S)—N-methyl-N-[6-[4-(1H-pyrazol-4-yl)-1H-indazol-7-yl]pyridazin-3-yl]-8-azabicyclo[3.2.1]octan-3-amine], for which the AC50 under setting [2] was below 0.5 µM.
With `CN(c1ccc(-c2ccc(-n3cccn3)c3cn[nH]c23)nn1)[C@@H]1C[C@H]2CC[C@@H](C1)N2` [Compound 105, (1R,3R,5S)—N-methyl-N-[6-[4-(pyrazol-1-yl)-1H-indazol-7-yl]pyridazin-3-yl]-8-azabicyclo[3.2.1]octan-3-amine], the AC50 was below 0.5 µM under setting [1] and below 0.5 µM under setting [2].
As to `C[C@H]1C[C@@H](N(C)c2ccc(-c3ccc(-c4cn[nH]c4)c4cc[nH]c34)nn2)CCN1` [Compound 108, N-methyl-N-[(2S,4S)-2-methylpiperidin-4-yl]-6-[4-(1H-pyrazol-4-yl)-1H-indol-7-yl]pyridazin-3-amine], the AC50 reads like this: under setting [1], above 5 µM; under setting [2], above 5 µM.
Regarding `CN(c1ccc(-c2ccc(-c3cn[nH]c3)c3cc[nH]c23)nn1)[C@@H]1C[C@H]2CC[C@@H](C1)N2` [Compound 112, (1R,3S,5S)—N-methyl-N-[6-[4-(1H-pyrazol-4-yl)-1H-indol-7-yl]pyridazin-3-yl]-8-azabicyclo[3.2.1] octan-3-amine], the AC50 was below 0.5 µM under setting [1] and 0.5 to 5 µM under setting [2].
The matching figures for `CN(c1ccc(-c2ccc(-n3cccn3)c3cc[nH]c23)nn1)[C@@H]1C[C@H]2CC[C@@H](C1)N2` [Compound 113, (1R,3R,5S)—N-methyl-N-[6-[4-(pyrazol-1-yl)-1H-indol-7-yl]pyridazin-3-yl]-8-azabicyclo[3.2.1]octan-3-amine]: 0.5 to 5 µM and above 5 µM.
For `C[C@@H]1C[C@H](N(C)c2ccc(-c3ccc(-c4cn[nH]c4)c4nn[nH]c34)nn2)CCN1` [Compound 115], under setting [2], the AC50 was above 5 µM.
Consider `C[C@@H]1C[C@H](N(C)c2ccc(-c3ccc(-n4cccn4)c4nn[nH]c34)nn2)CCN1` [Compound 117, N-methyl-N-[(2R,4R)-2-methylpiperidin-4-yl]-6-[7-(pyrazol-1-yl)-3H-1,2,3-benzotriazol-4-yl]pyridazin-3-amine], for which the concentration at half-maximal activity (AC50) was above 5 µM under setting [1] and above 5 µM under setting [2].
`CN(c1ccc(-c2ccc(-c3cn[nH]c3)c3nn[nH]c23)nn1)[C@@H]1C[C@H]2CC[C@@H](C1)N2` [Compound 118, (1R,3S,5S)—N-methyl-N-[6-[7-(1H-pyrazol-4-yl)-3H-1,2,3-benzotriazol-4-yl]pyridazin-3-yl]-8-azabicyclo[3.2.1]octan-3-amine]: the half-maximal activity concentration (AC50) by setting is: under setting [1], 0.5 to 5 µM; under setting [2], 0.5 to 5 µM.
In the case of `CN(c1ccc(-c2ccc(-n3cccn3)c3nn[nH]c23)nn1)[C@@H]1C[C@H]2CC[C@@H](C1)N2` [Compound 119, (1R,3S,5S)—N-methyl-N-[6-[7-(pyrazol-1-yl)-3H-1,2,3-benzotriazol-4-yl]pyridazin-3-yl]-8-azabicyclo[3.2.1]octan-3-amine], the AC50 by setting is: under setting [1], 0.5 to 5 µM; under setting [2], above 5 µM.
For the molecule `C[C@@H]1C[C@H](N(C)c2ccc(-c3ccc(-c4cn[nH]c4)c4c3NC(=O)C4)nn2)CCN1` [Compound 121, 7-(6-[methyl[(2R,4R)-2-methylpiperidin-4-yl]amino]pyridazin-3-yl)-4-(1H-pyrazol-4-yl)-1,3-dihydroindol-2-one], the half-maximal activity concentration (AC50) under setting [2] was above 5 µM.
For the molecule `CN(c1ccc(-c2ccc(-c3cn[nH]c3)c3ccsc23)nn1)C1CC(C)(C)NC(C)(C)C1` [Compound 131, N-methyl-6-[4-(1H-pyrazol-4-yl)-1-benzothiophen-7-yl]-N-(2,2,6,6-tetramethylpiperidin-4-yl)pyridazin-3-amine], the AC50 reads like this: under setting [1], above 5 µM; under setting [2], above 5 µM.
